These are literature values, as cited in patent US5711967A (Spirig AG, Pharmazeutische Praeparate, priority 1991, dated 1998).

For data set [1] the following is noted: above pKa value of approx. 4-5.
Another data set concerns mucosa. The settings on record: release in the stomach.

For `O=C(O)Cc1ccccc1Nc1c(Cl)cccc1Cl` [diclofenac], the “solubility in aqueous media” value in data set [1] is reported as “increases considerably above this value”. Also, the “distribution into the synovial fluid” value (from the blood plasma) is reported as “concentrate in the synovial fluid, with a delay”. Also, the elimination half-life (non-delayed-action diclofenac) is 1 to 2 h. Besides, the blood concentration half-life entry (oral diclofenac preparations) is reported as “one to two”. In addition, the action on mucosa result in the data set with mucosa is “mucosa-irritating and/or mucosa-damaging”.
